# Test results taken from paper PMC10380619, “Inhibitor Trapping in N-Myristoyltransferases as a Mechanism for Drug Potency” (International Journal of Molecular Sciences, 2023).
# Experiments:
# NMT = conditions: cited from earlier work; for IC50: fragments as single agents
# [1] = biological target: T1, full-length recombinant HsNMT1 enzyme (Homo sapiens, UniProt P30419); experiment: fluorogenic NMT inhibition assay; format: biochemical
# T1 construct: 18.9 nM full-length recombinant HsNMT1 enzyme was incubated; purchased Fitzgerald Industries International 80R-4067
# T1 sequence (P30419 1-496): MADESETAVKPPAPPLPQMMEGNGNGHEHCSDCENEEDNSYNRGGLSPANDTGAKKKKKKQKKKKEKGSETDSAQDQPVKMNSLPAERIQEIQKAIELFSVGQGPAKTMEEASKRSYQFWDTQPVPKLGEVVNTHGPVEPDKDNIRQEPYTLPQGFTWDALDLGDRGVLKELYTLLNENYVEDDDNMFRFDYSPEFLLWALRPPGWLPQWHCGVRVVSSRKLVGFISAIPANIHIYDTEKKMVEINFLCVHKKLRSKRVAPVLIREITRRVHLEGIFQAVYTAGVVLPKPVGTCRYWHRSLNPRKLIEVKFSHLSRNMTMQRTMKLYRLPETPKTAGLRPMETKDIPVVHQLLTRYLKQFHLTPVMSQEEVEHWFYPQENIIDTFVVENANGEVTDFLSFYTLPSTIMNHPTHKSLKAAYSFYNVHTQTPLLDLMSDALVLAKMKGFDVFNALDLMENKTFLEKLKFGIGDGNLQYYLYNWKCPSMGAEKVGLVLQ
# Experimental: Materials and reagents. […] The ZINC IDs and the structures of the compounds are included in Table S1. […] CPM (7-Diethylamino-3- (4-maleimidophenyl)-4-methylcoumarin) and Myristoyl-CoA were purchased from Cayman Chemicals, and the buffer components from Merck (Kenilworth, NJ, USA).
# NMT inhibition assay. IC50 values were determined using a fluorogenic NMT assay, as previously described. The assay detects Coenzyme A (CoA), which is released as a byproduct of the enzymatic reaction. […] The reactions were performed in reaction buffer (20 mM potassium phosphate, pH 8.0, 0.5 mM EDTA, 0.1% (v/v) Triton® X-100) in 44 µL volume in a 96-well black plate. To eliminate the background fluorescence, reactions were also performed in the absence of the NMT1 enzyme for each concentration of the ligands. […] Fluorescence was measured at an excitation wavelength of 380 nm and an emission wavelength of 470 nm with a CLARIOstar fluorescent reader (BMG LABTECH GmbH, Ortenberg, Germany). The fluorescent values of samples obtained in the absence of NMT1 were subtracted from the fluorescent signal of samples performed in the presence of NMT1 to eliminate the background signal. The subtracted values were plotted in GraphPad Prism using a log (inhibitor concentration) vs. normalized response nonlinear fit to generate inhibitory curves and determine IC50 values.
"IC50 ([1]; 18.9 nM HsNMT1, 4 µM Myristoyl-CoA, 4 µM substrate peptide, highest concentration 100 µM) [µM]",% Inhibition ([1]; at concentration of the compounds 100 µM) [%],Fold Potency ([1]; ratio of IC50 of each compound to IC50 of IMP-1088),SMILES,IC50 (NMT) [µM],fold reduction of IC50 of IMP-72 by IMP-358 (NMT; in the presence of 100 µM IMP-358) [fold]
–,–,–,Cc1cc(F)ccc1-c1ccc2[nH]nc(CN(C)C)c2c1 [IMP-72],20,308
–,–,–,CCOC(=O)c1c(C)nc2ccccc2c1C [IMP-358],> 100,–
> 100,0,">13,158",Cc1nc(Nc2cnn(C3CCNCC3)c2)nc2c1N(C)C(=O)c1cc3ccccc3cc1N2C [compound 11],–,–
